Measurements published in patent US6262065A (priority 1998, dated 2001).

Columns and labels:
[1] = molecular target: T1, α-mannosidase (jack bean) (Canavalia ensiformis, UniProt C0HJB3); assay: inhibition of α-mannosidase (jack bean), colorimetric release of p-nitrophenol from p-nitrophenyl α-D-mannopyranoside; format: biochemical; settings: initial screening
T1 construct: purchased Sigma Chemical Co
T1 sequence (C0HJB3 1-562 limits assumed): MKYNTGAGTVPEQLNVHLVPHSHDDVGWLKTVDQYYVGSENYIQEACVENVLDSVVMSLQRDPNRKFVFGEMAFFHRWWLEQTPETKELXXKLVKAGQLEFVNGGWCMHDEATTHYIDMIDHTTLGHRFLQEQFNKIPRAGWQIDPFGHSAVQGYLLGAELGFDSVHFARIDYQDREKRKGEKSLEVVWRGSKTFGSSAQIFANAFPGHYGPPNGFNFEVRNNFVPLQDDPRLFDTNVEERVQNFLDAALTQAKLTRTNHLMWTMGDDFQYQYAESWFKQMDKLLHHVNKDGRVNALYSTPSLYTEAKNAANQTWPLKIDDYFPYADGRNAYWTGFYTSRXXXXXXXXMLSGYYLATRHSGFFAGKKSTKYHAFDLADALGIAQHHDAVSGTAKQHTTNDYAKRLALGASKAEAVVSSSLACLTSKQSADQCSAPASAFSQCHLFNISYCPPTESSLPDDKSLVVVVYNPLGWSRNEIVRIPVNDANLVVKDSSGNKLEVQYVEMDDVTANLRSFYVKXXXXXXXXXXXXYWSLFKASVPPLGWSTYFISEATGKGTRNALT
T1 sequence (C0HJB3 563-981 limits assumed): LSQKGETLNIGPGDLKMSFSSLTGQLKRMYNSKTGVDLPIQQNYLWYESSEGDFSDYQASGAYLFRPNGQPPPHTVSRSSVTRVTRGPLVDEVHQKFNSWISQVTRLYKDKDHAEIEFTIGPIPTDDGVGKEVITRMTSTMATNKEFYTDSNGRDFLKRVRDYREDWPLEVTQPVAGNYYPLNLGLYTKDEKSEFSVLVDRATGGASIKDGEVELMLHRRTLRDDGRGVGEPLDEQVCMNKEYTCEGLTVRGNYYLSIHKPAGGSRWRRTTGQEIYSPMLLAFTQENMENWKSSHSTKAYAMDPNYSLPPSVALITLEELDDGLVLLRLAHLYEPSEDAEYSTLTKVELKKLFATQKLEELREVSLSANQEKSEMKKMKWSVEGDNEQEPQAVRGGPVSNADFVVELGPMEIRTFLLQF
Experimental: The enzyme α-mannosidase (from jack bean) and the corresponding p-nitrophenyl α-D-mannopyranoside substrate was obtained from Sigma Chemical Co. Enzyme inhibition was assayed colorimetrically by monitoring the release of p-nitrophenol from p-nitrophenyl α-D-mannopyranoside according to the procedure described by Tropea, et. al. (Tropea, J. E., et al, Biochemistry, Vol. 28, pp. 2027-2034 (1989)).

amyloglucosidase = settings: cited from earlier work
glucosidase I = settings: cited from earlier work
HIV = settings: cited from earlier work
[2] = tested on: mannosidases including the glycoprotein processing enzyme mannosidase II; settings: many mannosidases including mannosidase II; cited from earlier work

`OC[C@@H]1[C@@H](O)[C@@H](O)[C@H]2[C@H](O)CCCN21` [(VII), (1S,2R,3R,8R,8aR)-3-(Hydroxymethyl)-1,2,8-trihydroxyindolizidine] gave an IC50 [1] of 1.2 µM.

`OC[C@H]1[C@@H](O)[C@@H](O)[C@H]2[C@H](O)CCCN21` [(VIII), (1S,2R,3S,8R,8aR)-3-(Hydroxymethyl)-1,2,8-trihydroxyindolizidine] gave an IC50 [1] of 45 µM.

In the case of `OCC1C(O)C(O)C2C(O)CCN12` (stereo not shown) [compound 1], the inhibition of amyloglucosidase (amyloglucosidase) is listed as “good inhibitors” and the “inhibition of glucosidase I” value (glucosidase I) is listed as “good inhibitors”.

For `OCC1C(O)C(O)C2C(O)CCN12` (stereo not shown) [compound 3], the inhibition of amyloglucosidase (amyloglucosidase) is given as “good inhibitors” and the “inhibition of glucosidase I” value (glucosidase I) is given as “good inhibitors”.

For `OCC1C(O)C(O)C2C(O)CCN12` (stereo not shown) [compound 4], the inhibition of amyloglucosidase (amyloglucosidase) is given as “good inhibitors”, the “inhibition of glucosidase I” value (glucosidase I) is given as “good inhibitors” and the anti-HIV activity (HIV) is given as “shows anti-HIV activity”.

For `O[C@H]1[C@H]2[C@H](O)CCCN2C[C@H]1O` [swainsonine, (-)-swainsonine], the inhibition of mannosidases [2] is listed as “potent inhibitor”.
